In patent publication US7666354B2, “Composition for sterilization comprising ω-alkoxyperoxycarboxylic acid” (FUJIFILM Corporation, priority 2004, dated 2010):
Like-named read-outs stand apart in the source and are kept apart here. One block for each compound: values may come before it.

Columns and labels:
[1] = system: Spores of Bacillus subtilis IFO3134; test: Evaluation of antimicrobial activity against spores (liquid culture and agar culture after a given reaction time); format: cell-based; settings: for colony formation, 15 sec / colony formation, 1 min / colony formation, 5 min: Agar culture; for colony formation, 15 sec / bacterial proliferation, 15 sec: reaction time 15 sec; for colony formation, 1 min / bacterial proliferation, 1 min: reaction time 1 min; for colony formation, 5 min / bacterial proliferation, 5 min: reaction time 5 min; for bacterial proliferation, 15 sec / bacterial proliferation, 1 min / bacterial proliferation, 5 min: Liquid culture
Method: Antimicrobial activity of the composition of the present invention against spores was evaluated.
Spores of Bacillus subtilis IFO3134 was prepared based on the preparation method of a spores stock solution described in Notification from Ministry of Health, Labour and Welfare, “Ei-nyu(Milk Hygiene)” No. 10, Jan. 29, 1996 (Heisei 8). […] The bacteria were suspended in sterilized water (3 ml), and the suspension was heated at 65° C. for 30 minutes under shaking at 160 rpm to kill trophozoites. Resulting suspension was centrifuged at 3000 rpm, and the supernatant was discarded. Sterilized water (3 ml) was added to the residue to obtain a stock solution of spores. A solution of 1.1×10^9 cfu/mL was prepared using the stock solution and subjected to the following evaluations of antimicrobial activity.
Evaluation of antimicrobial activity was conducted according to the method of Sakagami et al. (J. Antibact. Antifung. Agents., Vol. 26, 605-601, 1998). Specifically, an aqueous solution (225 μl) of each sample which was filtered with 0.2 μm paper filter was added with spores suspension (25 μl) prepared by the above described method. The mixture (concentration of bacteria: 1.1×10^8 cfu/mL) was reacted for a given period of time. From the reaction solution, 2 μL sample was corrected and added to 2 ml of SCDLP culture medium (Nissui Pharmaceutical Co., Ltd.). The medium was cultured at 37° C. under shaking at 160 rpm for 48 hours, and the presence of bacterial growth was examined. At the same time, the reaction solution (25 μL) was added to a mixture solution (225 μL) of 0.1N sodium thiosulfate and 1% catalase to inactivate a peroxycarboxylic acid and hydrogen peroxide. Resulting solution (100 μL) was inoculated to SCDLP culture agar medium (Nissui Pharmaceutical Co., Ltd., 25 mL/petri dish). The medium was cultured at 37° C. for 48 hours, and examined visually for colony formation.
Each solution prepared in Example 1, 2, 3-c, 3-f, and 3-j was diluted with distilled water for injection (Hikari pharmaceutical company) so as to obtain a solution of peroxycarboxylic acid at a concentration of 40 mM, which was used as composition 1, 2, 3, 24, and 28. The compositions were evaluated for their antimicrobial activity using the above described method. Aqueous hydrogen peroxide which contains hydrogen peroxide at a higher concentration than the hydrogen peroxide concentration of the above diluted solutions was separately evaluated in a similar manner, and results are also shown in Table 1.

[2] = Stability Evaluation 1: peracid concentration after mixing carboxylic acid and 50% aqueous hydrogen peroxide (potassium iodide/sodium thiosulfate titration); format: physicochemical; settings: for peracid concentration in composition, 3 days after mixing: day 3; for peracid concentration in composition, 6 days after mixing: day 6; for peracid concentration in composition, 22 days after mixing: day 22
Description: A carboxylic acid (30 mmol) and 50% aqueous hydrogen peroxide (45 mmol) were mixed, and concentration of generated peracid was quantified by potassium iodide/sodium thiosulfate titration as described in Example 1 at a constant time interval. As the carboxylic acid, 3-methoxypropionic acid and 3-ethoxypropionic acid were used. As a control for comparison, methoxyacetic acid was used.
Numbers in Table 3 indicates peracid concentration (mM) in compositions.

[3] = cited from earlier work
[4] = system: Spores of Bacillus subtilis IFO3134; test: Evaluation of antimicrobial activity against spores (liquid culture and agar culture after a given reaction time); format: cell-based; settings: Table 2, Acecide, 40 mM peracetic acid
spores = settings: recently reported; cited from earlier work
[5] = Stability Evaluation 2: pH dependency of peroxycarboxylic acid concentration; format: physicochemical; settings: 80 mM solution, FIG. 1
Method: (§1) A aqueous composition of the peroxycarboxylic acid which was obtained in the above described Synthesis of compound 3 (1.6 M, 100 ml) was diluted by addition of water (50 ml), and the mixture was left at 25° C. for 7 days. Quantification was conducted by potassium iodide/sodium thiosulfate titration as described in Example 1.
The aqueous composition was diluted with water to adjust the peroxycarboxylic acid concentration at 80 mM. Three solutions of pH 1.7, 3.0, and 5.0 were prepared, and peroxycarboxylic acid concentration was quantified by potassium iodide/sodium thiosulfate titration as described in Example 1 at a constant time intervals. The pH was adjusted by addition of dipotassium hydrogen phosphate. Assuming that peroxycarboxylic acid concentration of 80 mM is 100%, changes in peroxycarboxylic acid concentration are shown in FIG. 1.

[6] = Judgment whether the composition meets the criteria of the fifth class of hazardous material in the Fire Defense Law (thermal analysis, pressure container test); settings: aqueous composition: Compound 3 7% w/w, hydrogen peroxide 13% w/w, 3-propoxypropionic acid 32% w/w, water 48% w/w
Method: as §1, with “mixed with” for “diluted by addition of”, “ml) for dilution,” for “ml),”, “14 days. The solution was further kept at 4° C. for 10” for “7”
The above aqueous composition was subjected to judgment whether or not the composition meets the criteria of the fifth class of hazardous material in the Fire Defense Law.

[7] = carboxylic acid 30 mmol + 50% aqueous hydrogen peroxide 45 mmol
[8] = Table 2, Acecide, 40 mM peracetic acid

peracid concentration in composition, 3 days after mixing [2, 7]: 160 mM | peracid concentration in composition, 6 days after mixing [2, 7]: 310 mM | peracid concentration in composition, 22 days after mixing [2, 7]: 700 mM
Compound: CCOCCC(=O)OO [Compound 2, 3-ethoxyperoxypropionic acid]
colony formation, 15 sec ([1]; peroxycarboxylic acid 40 mM): + | colony formation, 1 min ([1]; peroxycarboxylic acid 40 mM): + | colony formation, 5 min ([1]; peroxycarboxylic acid 40 mM): − | bacterial proliferation, 15 sec ([1]; peroxycarboxylic acid 40 mM): + | bacterial proliferation, 1 min ([1]; peroxycarboxylic acid 40 mM): + | bacterial proliferation, 5 min ([1]; peroxycarboxylic acid 40 mM): − | stability: change of peracid concentration with passage of time (in words) [2]: any decrease in peracid amount was not observed

Compound: O=C(CCOCCCl)OO [Compound 28]
colony formation, 15 sec ([1]; peroxycarboxylic acid 40 mM): + | colony formation, 1 min ([1]; peroxycarboxylic acid 40 mM): + | colony formation, 5 min ([1]; peroxycarboxylic acid 40 mM): − | bacterial proliferation, 15 sec ([1]; peroxycarboxylic acid 40 mM): + | bacterial proliferation, 1 min ([1]; peroxycarboxylic acid 40 mM): + | bacterial proliferation, 5 min ([1]; peroxycarboxylic acid 40 mM): −

Compound: OO [Hydrogen peroxide, reference compound]
colony formation, 15 sec ([1]; hydrogen peroxide 2000 mM): + | colony formation, 1 min ([1]; hydrogen peroxide 2000 mM): + | colony formation, 5 min ([1]; hydrogen peroxide 2000 mM): + | bacterial proliferation, 15 sec ([1]; hydrogen peroxide 2000 mM): + | bacterial proliferation, 1 min ([1]; hydrogen peroxide 2000 mM): + | bacterial proliferation, 5 min ([1]; hydrogen peroxide 2000 mM): +

Compound: COCC(=O)OO [peroxy-methoxyacetic acid, reference compound]
antibacterial effect compared with peracetic acid ([3]; J. Molecular Catalysis B: Enzymatic, 19-20, pp. 499-505 (2002)): weaker antibacterial effect than that of peracetic acid | stability: change of peracid concentration with passage of time (in words) [2]: unstable | peracid concentration in composition, 3 days after mixing [2, 7]: 530 mM | peracid concentration in composition, 6 days after mixing [2, 7]: 540 mM | peracid concentration in composition, 10 days after mixing ([2]; carboxylic acid 30 mmol + 50% aqueous hydrogen peroxide 45 mmol, day 10): 380 mM | peracid concentration in composition, 14 days after mixing ([2]; carboxylic acid 30 mmol + 50% aqueous hydrogen peroxide 45 mmol, day 14): 340 mM | peracid concentration in composition, 24 days after mixing ([2]; carboxylic acid 30 mmol + 50% aqueous hydrogen peroxide 45 mmol, day 24): 210 mM

Compound: CC(=O)OO [peracetic acid]
colony formation, 15 sec [1, 8]: + | bacterial proliferation, 15 sec [1, 8]: + | colony formation, 1 min ([4]; Agar culture, reaction time 1 min): + | colony formation, 5 min ([4]; Agar culture, reaction time 5 min): − | bacterial proliferation, 1 min ([4]; Liquid culture, reaction time 1 min): + | bacterial proliferation, 5 min ([4]; Liquid culture, reaction time 5 min): −

Compound: O=CCCCC=O [glutaraldehyde]
sterilizing effect to spores (spores): weak sterilizing effect to spores

Compound: CCC(=O)OO [peroxypropionic acid]
sterilizing action ([3]; J. Hyg. Epid. Microbiol. Immun., 9, pp. 220-226 (1965)): effective sterilizing action

Compound: COCCC(=O)OO [Compound 1, 3-methoxyperoxypropionic acid]
colony formation, 15 sec ([1]; peroxycarboxylic acid 40 mM): + | colony formation, 1 min ([1]; peroxycarboxylic acid 40 mM): + | colony formation, 5 min ([1]; peroxycarboxylic acid 40 mM): − | bacterial proliferation, 15 sec ([1]; peroxycarboxylic acid 40 mM): + | bacterial proliferation, 1 min ([1]; peroxycarboxylic acid 40 mM): + | bacterial proliferation, 5 min ([1]; peroxycarboxylic acid 40 mM): − | peracid concentration in composition, 3 days after mixing [2, 7]: 160 mM | peracid concentration in composition, 5 days after mixing ([2]; carboxylic acid 30 mmol + 50% aqueous hydrogen peroxide 45 mmol, day 5): 250 mM | peracid concentration in composition, 22 days after mixing [2, 7]: 650 mM | stability: change of peracid concentration with passage of time (in words) ([2]; summary of Table 3): any decrease in peracid amount was not observed

Compound: CCOCCCC(=O)OO [Compound 24]
colony formation, 15 sec ([1]; peroxycarboxylic acid 40 mM): + | colony formation, 1 min ([1]; peroxycarboxylic acid 40 mM): + | colony formation, 5 min ([1]; peroxycarboxylic acid 40 mM): − | bacterial proliferation, 15 sec ([1]; peroxycarboxylic acid 40 mM): + | bacterial proliferation, 1 min ([1]; peroxycarboxylic acid 40 mM): + | bacterial proliferation, 5 min ([1]; peroxycarboxylic acid 40 mM): −

storage stability, pH 3.0 ([5]; pH 3.0): significantly high storage stability | pressure container test result [6]: rank 3 | thermal analysis result [6]: no hazardous
Compound: CCCOCCC(=O)OO [Compound 3, peroxy-3-propoxypropionic acid]
colony formation, 15 sec ([1]; peroxycarboxylic acid 40 mM): + | colony formation, 1 min ([1]; peroxycarboxylic acid 40 mM): + | bacterial proliferation, 15 sec ([1]; peroxycarboxylic acid 40 mM): + | bacterial proliferation, 1 min ([1]; peroxycarboxylic acid 40 mM): + | bacterial proliferation, 5 min ([1]; peroxycarboxylic acid 40 mM): − | change in peroxycarboxylic acid concentration (storage stability), pH lower than 2 ([5]; pH 1.7): a decrease in peroxycarboxylic acid concentration was faster | change in peroxycarboxylic acid concentration (storage stability), pH 5 or higher ([5]; pH 5.0): a decrease in peroxycarboxylic acid concentration was faster | classification as fifth class of hazardous material in the Fire Defense Law [6]: did not classified in the fifth class of hazardous material

Compound: O=C(CCOCCO)OO [reference compound]
antimicrobial activity compared with Composition 1, Composition 2 ([1]; evaluated in a similar manner to Example 4): lower than that of Composition 1, Composition 2 or the like
